Results as given in patent US20080119515A1, “Heterocyclic Kinase Inhibitors: Methods of Use and Synthesis” (priority 2003, published 2008).

Molecular target: T1, ZAP-70 (Homo sapiens, UniProt P43403)
T1 sequence (P43403 1-619): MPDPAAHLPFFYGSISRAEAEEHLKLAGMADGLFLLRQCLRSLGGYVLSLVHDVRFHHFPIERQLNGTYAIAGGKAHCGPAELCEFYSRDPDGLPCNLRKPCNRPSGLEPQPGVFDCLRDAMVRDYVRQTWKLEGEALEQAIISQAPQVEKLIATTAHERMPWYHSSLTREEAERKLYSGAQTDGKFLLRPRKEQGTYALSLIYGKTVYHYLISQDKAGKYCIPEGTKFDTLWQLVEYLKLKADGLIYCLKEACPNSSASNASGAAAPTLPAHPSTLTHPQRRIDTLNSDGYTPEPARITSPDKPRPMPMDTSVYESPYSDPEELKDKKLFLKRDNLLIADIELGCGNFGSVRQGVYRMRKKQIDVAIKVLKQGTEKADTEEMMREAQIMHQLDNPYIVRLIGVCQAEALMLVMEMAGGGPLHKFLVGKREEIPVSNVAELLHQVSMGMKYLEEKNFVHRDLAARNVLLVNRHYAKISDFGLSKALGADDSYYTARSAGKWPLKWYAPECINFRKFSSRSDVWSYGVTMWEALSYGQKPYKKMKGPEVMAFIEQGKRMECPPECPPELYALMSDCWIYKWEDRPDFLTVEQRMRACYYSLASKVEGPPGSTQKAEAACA
Test: DELFIA assay (ZAP-70 kinase, phosphorylation of biotinylated poly(glu,tyr))
Type: biochemical
Conditions: ZAP-70 DELFIA, class symbols; read-out: Activity (IC50 in vitro)
In short: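 3.1 nM ZAP-70 pre-incubated 10 min at room temperature with compound ([…]) and 62.5 nM biotinylated poly(glu,tyr) in 62.5 mM Mops pH 7.0, 12.5 mM MgCl2, 12.5% glycerol, 6.25% DMSO (pre-incubation concentrations); ATP added from 5 mM stock, 30 min reaction, EDTA stop. Phosphorylation read by DELFIA europium anti-phosphotyrosine fluorescence (340/615).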

Row | Compound | IC50 [µM]
1 | CN(CCc1ccccc1)c1cc(C(=O)N2CCC[C@H]2CN2CCCC2)cc(N2CCOCC2)n1 [Compound 370] | > 10
2 | CN(CCc1ccccc1)c1cc(C(=O)N2CCC[C@H]2CN2CCCC2)cc(N(C)c2ccccc2)n1 [Compound 371] | > 10
3 | N=C(NC1CC1)[C@@H]1CCCN1C(=O)c1cc(NCc2ccc(C(F)(F)F)cc2)nc2ccc(-c3ccc4c(c3)OCO4)cc12 [Compound 377] | > 10
4 | N=C(NC1CCC1)[C@@H]1CCCN1C(=O)c1cc(NCc2ccc(C(F)(F)F)cc2)nc2ccc(-c3ccc4c(c3)OCO4)cc12 [Compound 378] | > 10
5 | N=C(NC1CCCC1)[C@@H]1CCCN1C(=O)c1cc(NCc2ccc(C(F)(F)F)cc2)nc2ccc(-c3ccc4c(c3)OCO4)cc12 [Compound 379] | > 10
6 | N=C(NC1CCCCC1)[C@@H]1CCCN1C(=O)c1cc(NCc2ccc(C(F)(F)F)cc2)nc2ccc(-c3ccc4c(c3)OCO4)cc12 [Compound 380] | > 10
7 | N=C([C@@H]1CCCN1C(=O)c1cc(NCc2ccc(C(F)(F)F)cc2)nc2ccc(-c3ccc4c(c3)OCO4)cc12)N1CCCC1 [Compound 381] | > 10
8 | N#C[C@@H]1CCCN1C(=O)c1cc(NCc2ccc(C(F)(F)F)cc2)nc2ccc(-c3ccc4c(c3)OCO4)cc12 [Compound 382] | > 10
9 | O=C(c1cc(NCc2ccc(C(F)(F)F)cc2)nc2c(-c3ccc4c(c3)OCO4)cc(Cl)cc12)N1CCC[C@H]1CN1CCCC1 [Compound 383] | > 10
10 | N#Cc1ccc(-c2ccc3nc(/C=C/c4ccc(Cl)cc4)cc(C(=O)N4CCC[C@H]4CN4CCCC4)c3c2)cc1 [Compound 387] | 1 to 10
11 | N#Cc1ccc(-c2ccc3nc(CCc4ccc(F)cc4)cc(C(=O)N4CCC[C@H]4CN4CCCC4)c3c2)cc1 [Compound 388] | 1 to 10
12 | N#Cc1ccc(-c2ccc3nc(CCc4ccc(Cl)cc4)cc(C(=O)N4CCC[C@H]4CN4CCCC4)c3c2)cc1 [Compound 390] | > 10
13 | N#Cc1ccc(-c2ccc3nc(CCc4ccccc4)cc(C(=O)N4CCC[C@H]4CN4CCCC4)c3c2)cc1 [Compound 391] | > 10
14 | Nc1ccc(CCc2cc(C(=O)N3CCC[C@H]3CN3CCCC3)c3cc(-c4ccc5c(c4)OCO5)ccc3n2)cc1 [Compound 394] | > 10

Continued, values first:

Row | IC50 [µM] | Compound
15 | 1 to 10 | CN(CCc1ccccc1)c1cc(C(=O)N2CCC[C@H]2CN2CCCC2)cc(N(C)CCc2ccccc2)n1 [Compound 372]
16 | 1 to 10 | FC(F)(F)c1ccc(CNc2cc(C(=S)N3CCC[C@H]3CN3CCCC3)c3cc(-c4ccc5c(c4)OCO5)ccc3n2)cc1 [Compound 373]
17 | 1 to 10 | O=C(c1cc(NCc2ccc(Cl)cc2)nc2ccc(-c3ccc4c(c3)OCO4)cc12)N1CC[C@H]1CN1CCCC1 [Compound 374]
18 | 1 to 10 | O=C(c1cc(NCc2ccc(C(F)(F)F)cc2)nc2ccc(-c3ccc4c(c3)OCO4)cc12)N1CCCC[C@H]1CN1CCCC1 [Compound 375]
19 | 1 to 10 | O=C(c1cc(NCc2ccc(Cl)cc2)nc2ccc(-c3ccc4c(c3)OCO4)cc12)N1CCCC[C@H]1CN1CCCC1 [Compound 376]
20 | < 1 | O=C(c1cc(NCc2ccc(C(F)(F)F)cc2)nc2c(Cl)cc(-c3ccc4c(c3)OCO4)cc12)N1CCC[C@H]1CN1CCCC1 [Compound 384]
21 | 1 to 10 | O=C(Nc1cc(C(=O)N2CCC[C@H]2CN2CCCC2)c2cc(-c3ccc4c(c3)OCO4)ccc2n1)c1ccccc1 [Compound 385]
22 | 1 to 10 | O=C(Nc1cc(C(=O)N2CCC[C@H]2CN2CCCC2)c2cc(-c3ccc4c(c3)OCO4)ccc2n1)c1ccc(Cl)cc1 [Compound 386]
23 | < 1 | N#Cc1ccc(-c2ccc3nc(CCc4ccc(C(F)(F)F)cc4)cc(C(=O)N4CCC[C@H]4CN4CCCC4)c3c2)cc1 [Compound 389]
24 | < 1 | Cc1ccc(CCc2cc(C(=O)N3CCC[C@H]3CN3CCCC3)c3cc(-c4ccc5c(c4)OCO5)ccc3n2)cc1 [Compound 392]
25 | < 1 | O=C(c1cc(CCc2ccc(-c3ccccc3)cc2)nc2ccc(-c3ccc4c(c3)OCO4)cc12)N1CCC[C@H]1CN1CCCC1 [Compound 393]
